{"source": "paper PMC5218480", "about": "(PLoS ONE, 2017)", "system": "MV-4-11 cells", "test": "Gene expression microarray analysis (Affymetrix PrimeView) and GSEA", "assay_type": "cell-based, human", "design": "RFU PODN (11730768_x_at) / Fold change /veh PODN (11730768_x_at) / RFU LINC00158 (11744669_a_at) / Fold change /veh LINC00158 (11744669_a_at) / RFU DUSP10 (11751237_a_at) / Fold change /veh DUSP10 (11751237_a_at) / RFU ID3 (11757404_x_at) / Fold change /veh ID3 (11757404_x_at) / RFU PLEKHG5 (11737974_s_at) / Fold change /veh PLEKHG5 (11737974_s_at) / RFU LRRC4B (11730491_at) / Fold change /veh LRRC4B (11730491_at) / RFU GIMAP4 (11747438_a_at) / Fold change /veh GIMAP4 (11747438_a_at) / RFU KRT8 (11758183_x_at) / Fold change /veh KRT8 (11758183_x_at) / RFU CNN1 (11734310_a_at) / Fold change /veh CNN1 (11734310_a_at) / RFU VPS37D (11726825_at) / Fold change /veh VPS37D (11726825_at) / RFU C10orf10 (11716522_x_at) / Fold change /veh C10orf10 (11716522_x_at) / RFU KIR2DL2 /// KIR2DL4 /// KIR2DL5A /// KIR2DL5B /// KIR2DS1 /// KIR2DS2 /// KIR2DS3 /// KIR2DS4 /// KIR3DL3 /// KIR3DL3 /// KIR3DS1 (11738374_at) / Fold change /veh KIR2DL2 /// KIR2DL4 /// KIR2DL5A /// KIR2DL5B /// KIR2DS1 /// KIR2DS2 /// KIR2DS3 /// KIR2DS4 /// KIR3DL3 /// KIR3DL3 /// KIR3DS1 (11738374_at) / RFU C1QL1 (11718748_at) / Fold change /veh C1QL1 (11718748_at) / RFU TMPRSS4 (11747572_a_at) / Fold change /veh TMPRSS4 (11747572_a_at) / RFU HAMP (11756126_x_at) / Fold change /veh HAMP (11756126_x_at) / RFU RNFT2 (11725882_a_at) / Fold change /veh RNFT2 (11725882_a_at) / RFU NR4A2 (11747474_a_at) / Fold change /veh NR4A2 (11747474_a_at) / RFU ABCC12 (11746883_a_at) / Fold change /veh ABCC12 (11746883_a_at) / RFU TMEM136 (11760407_x_at) / Fold change /veh TMEM136 (11760407_x_at) / RFU CLDN22 /// WWC2 (11732394_at) / Fold change /veh CLDN22 /// WWC2 (11732394_at) / RFU HLA-DPB1 (11760878_x_at) / Fold change /veh HLA-DPB1 (11760878_x_at) / RFU SPINT1 (11716480_a_at) / Fold change /veh SPINT1 (11716480_a_at) / RFU GAP43 (11754022_s_at) / Fold change /veh GAP43 (11754022_s_at) / RFU A4GNT (11735810_at) / Fold change /veh A4GNT (11735810_at) / RFU PRB3 (11715151_x_at) / Fold change /veh PRB3 (11715151_x_at) / RFU TUBB4B (11761932_at) / Fold change /veh TUBB4B (11761932_at) / RFU CAPN14 (11732068_a_at) / Fold change /veh CAPN14 (11732068_a_at) / RFU TMCC2 (11721928_a_at) / Fold change /veh TMCC2 (11721928_a_at) / RFU IRGQ (11745062_a_at) / Fold change /veh IRGQ (11745062_a_at) / RFU FAM174B (11720279_a_at) / Fold change /veh FAM174B (11720279_a_at) / RFU TMPRSS4 (11748680_a_at) / Fold change /veh TMPRSS4 (11748680_a_at) / RFU FAM212B (11763350_a_at) / Fold change /veh FAM212B (11763350_a_at) / RFU PLEKHG5 (11743358_a_at) / Fold change /veh PLEKHG5 (11743358_a_at) / RFU ZSCAN30 (11745921_a_at) / Fold change /veh ZSCAN30 (11745921_a_at) / RFU CMKLR1 (11741424_a_at) / Fold change /veh CMKLR1 (11741424_a_at) / RFU LOC101060620 /// MAPK8IP1 (11723275_at) / Fold change /veh LOC101060620 /// MAPK8IP1 (11723275_at) / RFU SPTSSB (11747773_x_at) / Fold change /veh SPTSSB (11747773_x_at) / RFU PRSS12 (11739890_at) / Fold change /veh PRSS12 (11739890_at) / RFU BIN1 (11741810_x_at) / Fold change /veh BIN1 (11741810_x_at) / RFU WNT11 (11732464_a_at) / Fold change /veh WNT11 (11732464_a_at) / RFU C10orf10 (11716521_a_at) / Fold change /veh C10orf10 (11716521_a_at) / RFU C5orf56 (11738089_at) / Fold change /veh C5orf56 (11738089_at) / RFU CYB561 (11721691_x_at) / Fold change /veh CYB561 (11721691_x_at) / RFU ANKRD19P (11752326_a_at) / Fold change /veh ANKRD19P (11752326_a_at) / RFU OR2T12 /// OR2T33 /// OR2T8 (11738714_s_at) / Fold change /veh OR2T12 /// OR2T33 /// OR2T8 (11738714_s_at) / RFU VCAN (11748164_a_at) / Fold change /veh VCAN (11748164_a_at) / RFU JSRP1 (11732532_at) / Fold change /veh JSRP1 (11732532_at) / RFU KRTAP10-11 (11738290_x_at) / Fold change /veh KRTAP10-11 (11738290_x_at) / RFU MYO3A (11730013_a_at) / Fold change /veh MYO3A (11730013_a_at) / RFU EBF3 (11725865_a_at) / Fold change /veh EBF3 (11725865_a_at) / RFU CAMK2N1 (11719241_x_at) / Fold change /veh CAMK2N1 (11719241_x_at) / RFU C5orf56 (11738088_a_at) / Fold change /veh C5orf56 (11738088_a_at) / RFU OLFML3 (11715873_a_at) / Fold change /veh OLFML3 (11715873_a_at) / RFU LOC100653217 /// NTM (11731650_a_at) / Fold change /veh LOC100653217 /// NTM (11731650_a_at) / RFU MAPK11 (11762145_a_at) / Fold change /veh MAPK11 (11762145_a_at) / RFU FIZ1 (11724087_x_at) / Fold change /veh FIZ1 (11724087_x_at) / RFU OASL (11726364_x_at) / Fold change /veh OASL (11726364_x_at) / RFU SOX15 (11748057_x_at) / Fold change /veh SOX15 (11748057_x_at) / RFU CD79A (11719716_a_at) / Fold change /veh CD79A (11719716_a_at) / RFU HIST1H1D (11736915_at) / Fold change /veh HIST1H1D (11736915_at) / RFU CASKIN2 (11723855_a_at) / Fold change /veh CASKIN2 (11723855_a_at) / RFU LOC730098 (11760151_x_at) / Fold change /veh LOC730098 (11760151_x_at) / RFU OR4N2 (11742367_at) / Fold change /veh OR4N2 (11742367_at) / RFU PRRT2 (11749266_a_at) / Fold change /veh PRRT2 (11749266_a_at) / RFU SNX32 (11753110_a_at) / Fold change /veh SNX32 (11753110_a_at) / RFU CDHR5 (11726645_a_at) / Fold change /veh CDHR5 (11726645_a_at) / RFU RCAN1 (11760418_a_at) / Fold change /veh RCAN1 (11760418_a_at) / RFU FAM167A (11723789_a_at) / Fold change /veh FAM167A (11723789_a_at) / RFU FAM26E (11764081_at) / Fold change /veh FAM26E (11764081_at) / RFU ISYNA1 (11749810_s_at) / Fold change /veh ISYNA1 (11749810_s_at) / RFU ACY1 (11761880_at) / Fold change /veh ACY1 (11761880_at) / RFU 11764098_at / Fold change /veh 11764098_at / RFU SAMD14 (11745864_x_at) / Fold change /veh SAMD14 (11745864_x_at) / RFU NPB (11741838_a_at) / Fold change /veh NPB (11741838_a_at) / RFU TMPRSS6 (11731388_a_at) / Fold change /veh TMPRSS6 (11731388_a_at) / RFU KRTAP10-2 (11738614_at) / Fold change /veh KRTAP10-2 (11738614_at) / RFU ARHGAP8 /// PRR5-ARHGAP8 (11727945_x_at) / Fold change /veh ARHGAP8 /// PRR5-ARHGAP8 (11727945_x_at) / RFU KRTAP5-7 /// NADSYN1 (11734609_at) / Fold change /veh KRTAP5-7 /// NADSYN1 (11734609_at) / RFU RASL12 (11751679_a_at) / Fold change /veh RASL12 (11751679_a_at) / RFU CDKN2B (11736163_a_at) / Fold change /veh CDKN2B (11736163_a_at) / RFU PRF1 (11729649_at) / Fold change /veh PRF1 (11729649_at) / RFU, ZNF638 /// ZNF638-IT1 / Fold change vs veh, ZNF638 /// ZNF638-IT1 / RFU, PANK3 / Fold change vs veh, PANK3 / RFU, SH3YL1 / Fold change vs veh, SH3YL1 / RFU, ZEB2 / Fold change vs veh, ZEB2 / RFU, NRIP1 / Fold change vs veh, NRIP1 / RFU, PTTG1IP / Fold change vs veh, PTTG1IP / RFU, CAPN2 / Fold change vs veh, CAPN2 / RFU, MED14 / Fold change vs veh, MED14 / RFU, SNORA58 / Fold change vs veh, SNORA58 / RFU, C1orf63 / Fold change vs veh, C1orf63 / RFU, LRRFIP1 / Fold change vs veh, LRRFIP1 / RFU, NDUFAF7 / Fold change vs veh, NDUFAF7 / RFU, SLC12A2 / Fold change vs veh, SLC12A2 / RFU, IBTK / Fold change vs veh, IBTK / RFU, ESF1 / Fold change vs veh, ESF1 / Fold change vs veh, TMEM50B / RFU, TAOK1 / Fold change vs veh, TAOK1 / RFU, ACBD3 / Fold change vs veh, ACBD3 / RFU, TMA16 / Fold change vs veh, TMA16 / RFU, RWDD3 / Fold change vs veh, RWDD3 / RFU, BCAT1 / Fold change vs veh, BCAT1 / RFU, EDEM3 / Fold change vs veh, EDEM3 / RFU, TMEM33 / Fold change vs veh, TMEM33 / RFU, WDR75 / Fold change vs veh, WDR75 / RFU, AHCTF1 / Fold change vs veh, AHCTF1 / RFU, TFRC / Fold change vs veh, TFRC / RFU, ZDHHC17 / Fold change vs veh, ZDHHC17 / RFU, NOM1 / Fold change vs veh, NOM1 / RFU, ARL8B / Fold change vs veh, ARL8B / RFU, ZBTB11 / Fold change vs veh, ZBTB11 / RFU, TAMM41 / Fold change vs veh, TAMM41 / RFU, KIAA1704 /// LOC100996395 / Fold change vs veh, KIAA1704 /// LOC100996395 / RFU, ING1 / Fold change vs veh, ING1 / RFU, TRMT61B / Fold change vs veh, TRMT61B / RFU, FUBP3 / Fold change vs veh, FUBP3 / RFU, TP53 / Fold change vs veh, TP53 / RFU, TNKS2 / Fold change vs veh, TNKS2 / RFU, ZFP14 / Fold change vs veh, ZFP14 / RFU, ACTR2 / Fold change vs veh, ACTR2 / RFU, PPP3R1 / Fold change vs veh, PPP3R1 / RFU, PIK3R1 / Fold change vs veh, PIK3R1 / RFU, HNRNPA1 / Fold change vs veh, HNRNPA1 / RFU, RNF170 / Fold change vs veh, RNF170 / RFU, ZNF28 / Fold change vs veh, ZNF28 / RFU, RNGTT / Fold change vs veh, RNGTT / RFU, OGT / Fold change vs veh, OGT / RFU, BRD1 / Fold change vs veh, BRD1 / RFU, MARS / Fold change vs veh, MARS / RFU, ZNF655 / Fold change vs veh, ZNF655 / RFU, FAHD1 / Fold change vs veh, FAHD1 / RFU, BDP1 / Fold change vs veh, BDP1 / RFU, LRRCC1 / Fold change vs veh, LRRCC1 / RFU, ARID1A / Fold change vs veh, ARID1A / RFU, ZNF146 / Fold change vs veh, ZNF146 / RFU, ZNF330 / Fold change vs veh, ZNF330 / RFU, GPN3 / Fold change vs veh, GPN3 / RFU, C9orf123 / Fold change vs veh, C9orf123 / RFU, N4BP2L2 / Fold change vs veh, N4BP2L2 / RFU, ARFIP1 / Fold change vs veh, ARFIP1 / RFU, FAM179B / Fold change vs veh, FAM179B / RFU, BCL10 / Fold change vs veh, BCL10 / RFU, UHRF1BP1L / Fold change vs veh, UHRF1BP1L / RFU, BET1 / Fold change vs veh, BET1 / RFU, CNOT2 / Fold change vs veh, CNOT2 / RFU, ZNF268 / Fold change vs veh, ZNF268 / Fold change vs veh, ZNF507 / RFU, DGCR2 / Fold change vs veh, DGCR2 / RFU, WDSUB1 / Fold change vs veh, WDSUB1 / Fold change vs veh, HSP90B1 /// MIR3652 / RFU, ADSS / Fold change vs veh, ADSS / RFU, GK / Fold change vs veh, GK / RFU, ZNF148 / Fold change vs veh, ZNF148 / RFU, TAF9 / Fold change vs veh, TAF9 / RFU, SLC1A5 / Fold change vs veh, SLC1A5 / RFU, SLMO2 / Fold change vs veh, SLMO2 / RFU, ABCC4 / Fold change vs veh, ABCC4 / RFU, LOC101060439 /// RAP1B / Fold change vs veh, LOC101060439 /// RAP1B / RFU, RFX7 / Fold change vs veh, RFX7 / RFU, GTPBP10 / Fold change vs veh, GTPBP10 / RFU, CNEP1R1 / Fold change vs veh, CNEP1R1 / RFU, BIVM-ERCC5 /// ERCC5 / Fold change vs veh, BIVM-ERCC5 /// ERCC5 / RFU, ILF3 / Fold change vs veh, ILF3 / RFU 11762660_at / Fold change /veh 11762660_at / RFU VCAN (11757783_s_at) / Fold change /veh VCAN (11757783_s_at) / RFU DDX43 (11728927_at) / Fold change /veh DDX43 (11728927_at) / RFU KRT8 (11758188_x_at) / Fold change /veh KRT8 (11758188_x_at) / RFU NKD1 (11759106_at) / Fold change /veh NKD1 (11759106_at) / RFU SRD5A1 (11742802_a_at) / Fold change /veh SRD5A1 (11742802_a_at) / RFU TPSAB1 /// TPSB2 (11721975_s_at) / Fold change /veh TPSAB1 /// TPSB2 (11721975_s_at) / RFU GSTM3 (11746129_a_at) / Fold change /veh GSTM3 (11746129_a_at) / RFU IL23R (11737362_x_at) / Fold change /veh IL23R (11737362_x_at) / RFU TMEM51 (11727254_a_at) / Fold change /veh TMEM51 (11727254_a_at) / RFU PIWIL2 (11732686_x_at) / Fold change /veh PIWIL2 (11732686_x_at) / RFU ORM1 (11744905_x_at) / Fold change /veh ORM1 (11744905_x_at) / RFU CCDC152 (11743942_at) / Fold change /veh CCDC152 (11743942_at) / RFU ECM1 (11717891_a_at) / Fold change /veh ECM1 (11717891_a_at) / RFU IL23R (11748794_a_at) / Fold change /veh IL23R (11748794_a_at) / RFU TNFAIP8L3 (11732012_x_at) / Fold change /veh TNFAIP8L3 (11732012_x_at) / RFU MBOAT4 (11741988_at) / Fold change /veh MBOAT4 (11741988_at) / RFU 11764193_at / Fold change /veh 11764193_at / RFU TMEM53 (11763286_at) / Fold change /veh TMEM53 (11763286_at) / RFU MAGEB2 (11727129_at) / Fold change /veh MAGEB2 (11727129_at) / RFU TMEM200A (11744735_a_at) / Fold change /veh TMEM200A (11744735_a_at) / RFU CCDC152 (11751479_a_at) / Fold change /veh CCDC152 (11751479_a_at) / RFU FAM211A (11726209_a_at) / Fold change /veh FAM211A (11726209_a_at) / RFU RGS16 (11746705_a_at) / Fold change /veh RGS16 (11746705_a_at) / RFU VCAN (11755009_s_at) / Fold change /veh VCAN (11755009_s_at) / RFU RHOB (11743442_s_at) / Fold change /veh RHOB (11743442_s_at) / RFU RGS16 (11720943_a_at) / Fold change /veh RGS16 (11720943_a_at) / RFU RGS16 (11720944_at) / Fold change /veh RGS16 (11720944_at) / RFU, VPS4B / Fold change vs veh, VPS4B / RFU, CREB1 / Fold change vs veh, CREB1 / RFU, DNAJC13 / Fold change vs veh, DNAJC13 / RFU, GNAQ / Fold change vs veh, GNAQ / RFU, CDK5R1 / Fold change vs veh, CDK5R1 / RFU, ZRANB3 / Fold change vs veh, ZRANB3 / RFU, CUL4A / Fold change vs veh, CUL4A / RFU, CCNY / Fold change vs veh, CCNY / RFU, UFL1 / Fold change vs veh, UFL1 / RFU, COG3 / Fold change vs veh, COG3 / RFU, DIAPH2 / Fold change vs veh, DIAPH2 / RFU, SKA2 / Fold change vs veh, SKA2 / RFU, AFF3 / Fold change vs veh, AFF3 / RFU, LMF1 / Fold change vs veh, LMF1 / RFU, IPO11 / Fold change vs veh, IPO11 / RFU, DFFB / Fold change vs veh, DFFB / RFU, FOXP1 / Fold change vs veh, FOXP1 / RFU, CARD8 / Fold change vs veh, CARD8 / RFU, STRN3 / Fold change vs veh, STRN3 / RFU, ADK / Fold change vs veh, ADK / RFU, RASSF2 / Fold change vs veh, RASSF2 / RFU, WIPF1 / Fold change vs veh, WIPF1 / RFU, LARP1B / Fold change vs veh, LARP1B / RFU, RASA1 / Fold change vs veh, RASA1 / RFU, RB1 / Fold change vs veh, RB1 / RFU, PPFIA1 / Fold change vs veh, PPFIA1 / RFU, MAT2A / Fold change vs veh, MAT2A / RFU, CCT5 / Fold change vs veh, CCT5 / RFU, WDR92 / Fold change vs veh, WDR92 / RFU, CUX1 / Fold change vs veh, CUX1 / RFU, TTC7A / Fold change vs veh, TTC7A / RFU, TMEM135 / Fold change vs veh, TMEM135 / RFU, DEPTOR / Fold change vs veh, DEPTOR / RFU, CPM / Fold change vs veh, CPM / RFU, DNAJB6 / Fold change vs veh, DNAJB6 / RFU, CACNA2D3 / Fold change vs veh, CACNA2D3 / RFU, DTX4 / Fold change vs veh, DTX4 / RFU, TFCP2 / Fold change vs veh, TFCP2 / RFU, GMCL1 /// GMCL1P1 / Fold change vs veh, GMCL1 /// GMCL1P1 / RFU, AEBP2 / Fold change vs veh, AEBP2 / RFU, SNHG1 /// SNORD22 /// SNORD25 /// SNORD26 /// SNORD27 /// SNORD28 /// SNORD29 /// SNORD31 / Fold change vs veh, SNHG1 /// SNORD22 /// SNORD25 /// SNORD26 /// SNORD27 /// SNORD28 /// SNORD29 /// SNORD31 / Fold change (Aza/veh), C12orf56 (ProbeSet 11735607_a_at) / Fold change (ACY-1035/veh), C12orf56 (ProbeSet 11735607_a_at) / Fold change (Aza/veh), FGFR1OP (ProbeSet 11751329_s_at) / Fold change (ACY-1035/veh), FGFR1OP (ProbeSet 11751329_s_at) / Fold change (Aza/veh), VPS36 (ProbeSet 11739960_a_at) / Fold change (ACY-1035/veh), VPS36 (ProbeSet 11739960_a_at) / RFU SYPL1 (11715823_x_at) / Fold change /veh SYPL1 (11715823_x_at) / RFU IGFBP7 (11715501_s_at) / Fold change /veh IGFBP7 (11715501_s_at) / RFU REEP3 (11722064_at) / Fold change /veh REEP3 (11722064_at) / RFU IGLL1 (11728026_x_at) / Fold change /veh IGLL1 (11728026_x_at): dose or concentration left out as unconfirmed", "conditions": "MV-4-11 cells, 48 hours", "data": [{"compound": "Nc1ccc(-c2cccs2)cc1NC(=O)c1ccc2c(c1)cc(C1CC1)n2CCN1CCOCC1", "note": "[ACY-1035]", "values": [{"measurement": "Fold change /veh TUBB4B (11761932_at)", "result": 1.03}]}]}
